{
  "source": "patent US20100215710A1",
  "about": "“Beta-2 Adrenergic Receptor Agonists and Antagonists and Modulation of Wound Healing” (The Regents of the University of California, priority 2005, published 2010)",
  "assay_type_in_all_cases": "cell-based",
  "key": {"adult human CECs": {"system": "adult human CECs", "test": "Immunofluorescent staining of actin and vinculin, adult human CECs", "protocol": "Sterile glass cover slips were transferred into 12 well dishes and collagen-coated with 60 μg/ml collagen I in PBS for 1 hour at 37° C. Cover slips were washed three times with CGM and 3×10^4 adult human CECs were added per well and allowed to attach for 3 hours or overnight. Cells were untreated (control […]), treated with 20 μM β-AR antagonist, 10 nM or 1 μM β-AR agonist for 15 minutes, 100 nM OA for 45 minutes, or pre-treated with 100 nM OA for 30 minutes prior to the addition of 10 nM or 1 μM β-AR agonist for 15 minutes. […]\nCells plated in the absence of β-AR agonist are polarized and crescent shaped with a broad lamellipodium, characteristic of the migratory phenotype (Ridley et al. (2003) “Cell migration: integrating signals from front to back” Science 302:1704-9). […] Image J was used to measure the actin and vinculin associated fluorescence by measuring the mean pixel intensity (MPI) of 25 cells from each condition. Control cells have an MPI of 40.3+/−4.8. β-AR agonist treatment has no significant effect on actin and vinculin associated fluorescence; the MPI of β-AR agonist-treated cells is 44.6+/−2."}, "human keratinocytes [1]": {"system": "human keratinocytes", "test": "Keratinocyte proliferation assay (β-AR agonist, OA)", "protocol": "Keratinocytes were released from the tissue culture plate by treatment with 0.25% trypsin/EDTA (Gibco, Grand Island, N.Y.), resuspended in KGM and counted using a haemocytometer. Cells were either untreated or pre-treated with okadaic acid (OA) (10 nM) for 45 minutes prior to β-AR agonist (1 μM) addition. 5×10^4 cells were plated per well in a 12 well plate in triplicate in the presence or absence of 1 μM β-AR agonist, 10 nM OA or both. Triplicate wells were harvested and counted on days 2, 4, 6, 8. The medium was changed every day. Significance was taken as p<0.01, using Student's t test (unpaired) to compare the means of the cell populations.\n5×10^4 […] keratinocytes were plated per well in a 12 well plate in triplicate in the presence or absence of β-AR agonist (1 μM) (FIG. 2 Panel A; control represented by circles, 1 μM β-AR agonist by squares), or pre-treated with 10 nM OA for 30 minutes prior to the addition of OA alone or both OA and β-AR agonist, (FIG. 2 Panel B; OA represented by X's and OA/β-AR agonist by stars). Cells were harvested and counted on days 2, 4, 6, 8 as described. The data are representative of three independent experiments with at least two different keratinocyte strains. Values plotted are means+/−SEM. *P<0.01 between β-AR agonist and controls."}, "human keratinocytes [2]": {"system": "human keratinocytes", "test": "Immunofluorescent staining of actin and vinculin, keratinocytes (β-AR agonist, OA)", "protocol": "Sterile glass cover-slips (Fisher Scientific, Pittsburgh, Pa.) were transferred into 12 well dishes and collagen-coated with 60 μg/ml collagen I in KGM for 1 hour at 37° C. Cover-slips were washed three times with KGM and 3×10^4 cells were added per well and allowed to attach overnight. Cells were untreated, treated with 1 μM β-AR agonist for 15 minutes, OA (10 nM) for 45 minutes, or pre-treated with OA (10 nM) for 30 minutes prior to the addition of 1 μM β-AR agonist for 15 minutes. All steps were performed at room temperature unless otherwise noted. Cover slips were washed twice in PBS and fixed for 10 minutes in 4% paraformaldehyde. Cover-slips were washed twice in PBS between each step. Cells were permeabilized for 5 minutes with 0.1% Triton-X-100/PBS, blocked with 5% goat serum/PBS for 20 minutes, primary monoclonal anti-vinculin antibody (Sigma, St. Louis, Mo.) or anti-phospho-ERK antibody (Cell Signaling Technology, Beverly, Mass.) were added drop-wise in 1% goat serum/PBS (1:100) and incubated for 1 hour at 37° C. A goat anti-mouse cy3 (Jackson labs, West Grove, Pa.) (1:100) antibody was then added in 1% goat serum/PBS for 1 hour at 37° C. Alexa 488-phalloidin (Molecular Probes, Eugene, Oreg.) (1:40) in PBS was added to the vinculin-stained cover-slips for 20 minutes. […]"}},
  "data": [
    {"smiles": "C=C1[C@@H](O)[C@@H]2O[C@]3(CC[C@H](/C=C/[C@@H](C)[C@@H]4CC(C)=C[C@@]5(O[C@H](C[C@@](C)(O)C(=O)O)CC[C@H]5O)O4)O3)CC[C@H]2O[C@@H]1[C@@H](O)C[C@H](C)[C@H]1O[C@@]2(CCCCO2)CC[C@H]1C", "note": "[OA, okadaic acid]", "values": [
      {"measurement": "effect on cytoskeletal organization", "setting": "adult human CECs; OA 100 nM alone", "value": "no effect"},
      {"measurement": "effect on β2-AR-mediated alterations in cytoskeletal organization", "setting": "adult human CECs; OA 100 nM pre-treatment prior to β-AR agonist 10 nM", "value": "prevents"},
      {"measurement": "effect on keratinocyte proliferation", "setting": "human keratinocytes [1]; OA 10 nM alone", "value": "no effect"},
      {"measurement": "effect on β2-AR-mediated decrease in proliferation", "setting": "human keratinocytes [1]; OA 10 nM pre-treatment, then OA plus 1 μM β-AR agonist", "value": "completely prevents"},
      {"measurement": "effect on cytoskeletal conformation", "setting": "human keratinocytes [2]; OA 10 nM alone, 45 minutes", "value": "no effect"},
      {"measurement": "effect on β2-AR-mediated change in cytoskeletal conformation", "setting": "human keratinocytes [2]; OA 10 nM pre-treatment prior to 1 μM β-AR agonist", "value": "prevents"}
    ]}
  ]
}
